Values quoted from earlier work as cited in US20230059204A1, “T[…]-DOSING […] OF PHARMACEUTICAL AGENTS” (PIKE THERAPEUTICS, INC., priority 2021, published 2023).

System: serotonin receptors in the brain
Conditions: once ingested

## CN(C)CCc1c[nH]c2cccc(OP(=O)(O)O)c12 [psilocybin, [3-(2-dimethylaminoethyl)-1H-indol-4-yl] dihydrogen phosphate]
  duration of mind-altering effects: two to six
